Test results: US9969989B2, “Carotenoid dioxygenase and methods for the biotechnological production in microorganisms and plants of compounds derived from saffron” (AGENZIA NAZIONALE PER LE NUOVE TECNOLOGIE, L'ENERGIA E LO …, priority 2014, dated 2018)

Key:
ZCD [1] = biological target: T1, ZCD (Crocus sativus, UniProt Q84K96); assay: Corn endosperm transformed with 35S:ZCD, carotenoids and apocarotenoids by LC-HRMS; type: cell-based; conditions: for Relative content of carotenoids and apocarotenoids in corn endosperm: 35S: ZCD, peak areas of the ions standardised by the internal standard, mean ± SD of 4 biological repetitions
T1 construct: expressed in transfected cells; host or cells: corn (maize) endosperm, Agrobacterium tumefaciens-mediated transformation
T1 sequence (Q84K96 1-369): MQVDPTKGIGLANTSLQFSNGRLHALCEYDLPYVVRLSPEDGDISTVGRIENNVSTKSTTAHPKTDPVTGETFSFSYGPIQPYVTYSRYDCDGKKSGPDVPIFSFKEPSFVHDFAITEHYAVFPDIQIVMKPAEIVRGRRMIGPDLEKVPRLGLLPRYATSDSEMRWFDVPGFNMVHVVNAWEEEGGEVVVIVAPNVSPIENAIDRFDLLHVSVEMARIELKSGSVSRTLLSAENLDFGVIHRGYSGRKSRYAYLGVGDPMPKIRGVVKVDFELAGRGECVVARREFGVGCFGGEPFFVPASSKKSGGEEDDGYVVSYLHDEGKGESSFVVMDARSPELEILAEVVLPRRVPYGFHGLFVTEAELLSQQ
Source text: (§1) RNA isolated from stigmas of saffron was sequenced by means of RNA-Seq 454 Titanium technology as reported in the literature (10) (FIG. 2A). The evolutionary relationships between the gene families CCD1 and CCD4 of saffron, Arabidopsis, rice and Synechocystis, were studied using the Neighbor-Joining method (11) (FIG. 2B), whilst the CCD proteins were modelled using the web server RaptorX (12) (FIG. 2C). The assays in bacteria were obtained by transforming particular strains of E. coli engineered to accumulate lycopene, β-carotene, and zeaxanthin, with the expression vectors pThio-DAN1-CCD2, pThio-DAN1-ZCD and pThio-DAN1 (empty vector, used as control) as indicated in the literature (13) (14) (15) (FIG. 3). The transformation of corn endosperm, in Agrobacterium tumefaciens-mediated manner, was obtained by cloning the coding sequence of CCD2 in the vector pBI121 (16) and by using protocols already present in the literature (17). The strain of E. coli BL21 (p-Gro7) was used to assay the activity in vitro of CCD2: the raw protein extracts were prepared and incubated with the appropriate substrates and extracts as described before (14) (FIG. 4). All the analyses directed to the identification and quantification of the carotenoids and apocarotenoids were performed using a mass spectrometry platform LTQ-Orbitrap coupled with a high-pressure liquid chromatography (HPLC) system and with a diode array detector (DAD) (ThermoFisher Scientific); the chromatographic separation was obtained using a C30 column with inverse phase, whereas for positive ionisation an APCI (Atmospheric Pressure Chemical Ionization) source was selected (18).
The sequences coding CCD2 and ZCD were cloned in the binary vector pBI121 under the control of the established promoter 35S. The vectors thus obtained were used to transform corn endosperm and cells of Arabidopsis thaliana, which contain zeaxanthin. […] Such a conversion is caused by the conversion of crocetin dialdehyde to crocetin in the corn endosperm (Table 1) and in the cells of Arabidopsis thaliana.

CCD2 [2] = assay: CCD2 expressed in E. coli strains that accumulate lycopene, β-carotene or zeaxanthin; type: cell-based, Crocus sativus; conditions: E. coli strain accumulating the carotenoid, expression of CCD2
Source text: as §1
(§2) The coding sequences of the genes CCD2 and ZCD were cloned in the vector pThio-DAN1, which allows an inducible expression in E. coli induced from arabinose. The recombinant proteins were expressed in three strains of E. coli that accumulate lycopene, β-carotene and zeaxanthin (FIG. 3A) (13) (14). […] A peak with the chromatographic and the m/z ratio (329.1747) typical of crocetin was also discernible.

ZCD [3] = biological target: T1, ZCD; assay: ZCD expressed in E. coli strains that accumulate lycopene, β-carotene or zeaxanthin; type: cell-based; conditions: E. coli strain accumulating the carotenoid, expression of ZCD
Source text: as §1, §2

CCD2 [4] = assay: In vitro assay with semi-purified extracts of E. coli expressing CCD2, specificity for carotenoids; type: biochemical, Crocus sativus
Source text: as §1
Since the strains of genetically modified E. coli can produce only a limited number of different carotenoids, we developed and used an in vitro assay, based on semi-purified extracts of E. coli that expresses CCD2, in order to study the specificity of this enzyme for the various carotenoids. […] 3-OH-β-apo-8′-carotenal, formed from CCD2 on the basis of the zeaxanthin in vitro, is then cleaved from the CCD2, with production of crocetin, signalling that the extracts of E. coli are able to convert the product of CCD2, crocetin dialdehyde, into crocetin.

ZCD [5] = biological target: T1, ZCD; assay: In vitro assay with extracts of E. coli expressing ZCD, specificity for carotenoids; type: biochemical

Molecule	Relative content of carotenoids and apocarotenoids in corn endosperm (ZCD [1])	Discoloration and cleavage product of the accumulated carotenoid (CCD2 [2])	Discoloration and cleavage product of the accumulated carotenoid (ZCD [3])	Cleavage of the substrate in vitro (CCD2 [4])	further results
CC1=C(/C=C/C(C)=C/C=C/C(C)=C/C=C/C=C(C)/C=C/C=C(C)/C=C/C2=C(C)C[C@@H](O)CC2(C)C)C(C)(C)C[C@H](O)C1 [Zeaxanthin]	1.73 ± 0.20	clear discoloration	did not produce any discoloration or any cleavage product	cleaves	Cleavage product of zeaxanthin produced (ZCD [1]; corn endosperm expressing ZCD): No cleavage product; Cleavage of the substrate in vitro (ZCD [5]): does not cleave
CC(C)=CCC/C(C)=C/C=C/C(C)=C/C=C/C(C)=C/C=C/C=C(C)/C=C/C=C(C)/C=C/C=C(\C)CCC=C(C)C [lycopene]	–	no discoloration and no cleavage product	no discoloration and no cleavage product	–	–
CC1=C[C@H](O)CC(C)(C)[C@H]1/C=C/C(C)=C/C=C/C(C)=C/C=C/C=C(C)/C=C/C=C(C)/C=C/C1=C(C)C[C@@H](O)CC1(C)C [Lutein]	0.64 ± 0.09	–	–	–	–
CC(/C=C/C=C(C)/C=C/[C@@]12O[C@]1(C)C[C@@H](O)CC2(C)C)=C\C=C\C=C(C)\C=C\C=C(C)\C=C\[C@@]12O[C@]1(C)C[C@@H](O)CC2(C)C [violaxanthin]	–	–	–	does not cleave	–
CC1=C(/C=C/C(C)=C/C=C/C(C)=C/C=C/C=C(C)/C=C/C=C(C)/C=C/C2=C(C)C[C@@H](O)CC2(C)C)C(C)(C)CCC1 [β-cryptoxanthin]	0.12 ± 0.04	–	–	–	–
CC1=C(/C=C/C(C)=C/C=C/C(C)=C/C=C/C=C(C)/C=C/C=C(C)/C=C/C2=C(C)CCCC2(C)C)C(C)(C)CCC1 [β-carotene]	–	no discoloration and no cleavage product	no discoloration and no cleavage product	does not cleave	–
3-OH-β-apo-8′-carotenal	–	–	–	cleaved	–
CC1=C(/C=C/C(C)=C/C=C/C(C)=C/C=C/C=C(C)/C=C/C=C(\C)C=O)C(C)(C)CCC1 [β-apo-8′-carotenal]	–	–	–	does not cleave	–
